Several values for one entry are separate records, joined by “and”; a condition that tells them apart may be missing. Identical values can stand only once. Inconclusive results and toxic doses are left out. Rule as the data show it: active = T/C of 150% or more; inactive = T/C below 125%.
System: L1210 leukemia ip in BDF1 mice, survival T/C
Assay: NCI In Vivo Anticancer Drug Screen. Data for tumor model L1210 Leukemia (intraperitoneal) in B6D2F1 (BDF1) mice
Conditions: endpoint: mean survival time, higher = longer survival
Procedure, shortened: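 Value reflects the ratio of survival in compound-treated mice to survival in vehicle-treated controls, with both groups carrying the same transplanted tumor.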

[1] = dose: 100.0 mg/kg/injection, schedule: Q01DX009 (ip), vehicle: saline
[2] = dose: 200.0 mg/kg/injection, schedule: Q01DX009 (ip), vehicle: saline
[3] = dose: 400.0 mg/kg/injection, schedule: Q01DX009 (ip), vehicle: saline
[4] = dose: 100.0 mg/kg/injection, schedule: Q01DX009 (ip), vehicle: saline with Tween-80
[5] = dose: 200.0 mg/kg/injection, schedule: Q01DX009 (ip), vehicle: saline with Tween-80
[6] = dose: 100.0 mg/kg/injection, schedule: Q01DX009 (ip), vehicle: Klucel (hydroxypropylcellulose) (HPC)
[7] = dose: 200.0 mg/kg/injection, schedule: Q01DX009 (ip), vehicle: Klucel (hydroxypropylcellulose) (HPC)

Measured: T/C

C=CCc1c[nH]c(=S)[nH]c1=O.[Hg]
inactive: dose: 3.12 mg/kg/injection, schedule: Q01DX001 (ip), vehicle: Klucel (hydroxypropylcellulose) (HPC) 98 % of control | dose: 6.0 mg/kg/injection, schedule: Q01DX009 (ip), vehicle: Klucel (hydroxypropylcellulose) (HPC) 98 % of control | dose: 6.0 mg/kg/injection, schedule: Q04DX003 (ip), vehicle: Klucel (hydroxypropylcellulose) (HPC) 97 % of control | dose: 6.25 mg/kg/injection, schedule: Q01DX001 (ip), vehicle: Klucel (hydroxypropylcellulose) (HPC) 98 % of control | dose: 12.0 mg/kg/injection, schedule: Q01DX009 (ip), vehicle: Klucel (hydroxypropylcellulose) (HPC) 94 % of control | dose: 12.0 mg/kg/injection, schedule: Q04DX003 (ip), vehicle: Klucel (hydroxypropylcellulose) (HPC) 100 % of control | dose: 12.5 mg/kg/injection, schedule: Q01DX001 (ip), vehicle: Klucel (hydroxypropylcellulose) (HPC) 93 % of control and 96 % of control | dose: 50.0 mg/kg/injection, schedule: Q01DX001 (ip), vehicle: Klucel (hydroxypropylcellulose) (HPC) 93 % of control

Nc1nc(N)c2nc(CNc3ccc(Cl)c(Cl)c3)cnc2n1
inactive: dose: 1.0 mg/kg/injection, schedule: Q01DX009 (ip), vehicle: saline 103 % of control | dose: 2.0 mg/kg/injection, schedule: Q01DX009 (ip), vehicle: saline 101 % of control | dose: 4.0 mg/kg/injection, schedule: Q01DX009 (ip), vehicle: saline 94 % of control | dose: 4.0 mg/kg/injection, schedule: Q04DX003 (ip), vehicle: saline 90 % of control | dose: 8.0 mg/kg/injection, schedule: Q01DX009 (ip), vehicle: saline 90 % of control | dose: 8.0 mg/kg/injection, schedule: Q04DX003 (ip), vehicle: saline 100 % of control | dose: 16.0 mg/kg/injection, schedule: Q01DX009 (ip), vehicle: saline 87 % of control | dose: 16.0 mg/kg/injection, schedule: Q04DX003 (ip), vehicle: saline 92 % of control | dose: 32.0 mg/kg/injection, schedule: Q04DX003 (ip), vehicle: saline 97 % of control | dose: 64.0 mg/kg/injection, schedule: Q04DX003 (ip), vehicle: saline 89 % of control

O=C(O)C(=C/c1ccccc1)/C(=C\c1ccccc1)C(=O)O
inactive: dose: 100.0 mg/kg/injection, schedule: Q01DX001 (ip), vehicle: saline 103 % of control | [1] 89 % of control | dose: 200.0 mg/kg/injection, schedule: Q01DX001 (ip), vehicle: saline 105 % of control | [2] 93 % of control | dose: 400.0 mg/kg/injection, schedule: Q01DX001 (ip), vehicle: saline 97 % of control | [3] 90 % of control

OC(COC(c1ccccc1)(c1ccccc1)c1ccccc1)C(O)CC1SCCS1 (stereo unspecified)
inactive: dose: 50.0 mg/kg/injection, schedule: Q01DX001 (ip), vehicle: carboxymethylcellulose (CMC) 105 % of control | dose: 100.0 mg/kg/injection, schedule: Q01DX001 (ip), vehicle: carboxymethylcellulose (CMC) 105 % of control | dose: 200.0 mg/kg/injection, schedule: Q01DX001 (ip), vehicle: carboxymethylcellulose (CMC) 94 % of control | dose: 400.0 mg/kg/injection, schedule: Q01DX001 (ip), vehicle: carboxymethylcellulose (CMC) 100 % of control

CCOc1nn2nnnc2c2ccccc12
inactive: dose: 37.5 mg/kg/injection, schedule: Q04DX003 (ip), vehicle: saline with Tween-80 97 % of control | dose: 75.0 mg/kg/injection, schedule: Q04DX003 (ip), vehicle: saline with Tween-80 97 % of control | dose: 150.0 mg/kg/injection, schedule: Q04DX003 (ip), vehicle: saline with Tween-80 103 % of control

COC1OC(COC(c2ccccc2)(c2ccccc2)c2ccccc2)C(O)C(O)C1NC(C)=O (stereo unspecified)
inactive: dose: 100.0 mg/kg/injection, schedule: Q01DX001 (ip), vehicle: Klucel (hydroxypropylcellulose) (HPC) 96 % of control | dose: 200.0 mg/kg/injection, schedule: Q01DX001 (ip), vehicle: Klucel (hydroxypropylcellulose) (HPC) 96 % of control | dose: 400.0 mg/kg/injection, schedule: Q01DX001 (ip), vehicle: Klucel (hydroxypropylcellulose) (HPC) 101 % of control

O=C(Sc1ccc([N+](=O)[O-])cc1)C(=O)Sc1ccc([N+](=O)[O-])cc1
inactive: [4] 87 % of control | [5] 97 % of control

CCC(CCC(C)C1CCC2C3CC=C4CC(OC(=O)Nc5ccc(Cl)cc5)CCC4(C)C3CCC12C)C(C)C (stereo unspecified)
inactive: dose: 100.0 mg/kg/injection, schedule: Q04DX002 (ip), vehicle: saline with Tween-80 91 % of control | dose: 200.0 mg/kg/injection, schedule: Q04DX002 (ip), vehicle: saline with Tween-80 97 % of control | dose: 400.0 mg/kg/injection, schedule: Q04DX002 (ip), vehicle: saline with Tween-80 94 % of control

CCCCCOc1cc(C(C)=O)cc(OC)c1OC(=O)c1cc([N+](=O)[O-])cc([N+](=O)[O-])c1
inactive: [4] 94 % of control | [5] 94 % of control | dose: 400.0 mg/kg/injection, schedule: Q01DX009 (ip), vehicle: saline with Tween-80 102 % of control

CC(C)OC(=O)Oc1c(Cl)c(Cl)c(Cl)c(Cl)c1Cl
inactive: [6] 95 % of control | dose: 100.0 mg/kg/injection, schedule: Q04DX002 (ip), vehicle: Klucel (hydroxypropylcellulose) (HPC) 105 % of control | [7] 98 % of control | dose: 200.0 mg/kg/injection, schedule: Q04DX002 (ip), vehicle: Klucel (hydroxypropylcellulose) (HPC) 94 % of control | dose: 400.0 mg/kg/injection, schedule: Q04DX002 (ip), vehicle: Klucel (hydroxypropylcellulose) (HPC) 98 % of control

C[CH2][Ge]([CH2]C)([CH2]C)[CH2]CO
inactive: dose: 5.0 mg/kg/injection, schedule: Q04DX002 (ip), vehicle: saline with Tween-80 103 % of control | dose: 10.0 mg/kg/injection, schedule: Q04DX002 (ip), vehicle: saline with Tween-80 106 % of control | dose: 20.0 mg/kg/injection, schedule: Q04DX002 (ip), vehicle: saline with Tween-80 103 % of control

Oc1cc(O)c(CN2CCOCC2)c(O)c1CN1CCOCC1
inactive: dose: 100.0 mg/kg/injection, schedule: Q01DX001 (ip), vehicle: other 98 % of control | dose: 200.0 mg/kg/injection, schedule: Q01DX001 (ip), vehicle: other 100 % of control | dose: 400.0 mg/kg/injection, schedule: Q01DX001 (ip), vehicle: other 95 % of control

CCC(C)Nc1ccc(NC(=S)Nc2ccc(NC(C)CC)cc2)cc1 (stereo unspecified)
inactive: dose: 100.0 mg/kg/injection, schedule: Q04DX002 (ip), vehicle: other 89 % of control | dose: 200.0 mg/kg/injection, schedule: Q04DX002 (ip), vehicle: other 86 % of control | dose: 400.0 mg/kg/injection, schedule: Q04DX002 (ip), vehicle: other 86 % of control

CCOCC(OC)OC
inactive: [1] 95 % of control | dose: 100.0 mg/kg/injection, schedule: Q04DX003 (ip), vehicle: saline 93 % of control | [2] 97 % of control | dose: 200.0 mg/kg/injection, schedule: Q04DX003 (ip), vehicle: saline 98 % of control | [3] 97 % of control | dose: 400.0 mg/kg/injection, schedule: Q04DX003 (ip), vehicle: saline 107 % of control

COC(OC)c1cc(=O)[nH]c(=S)n1Cl
inactive: [6] 86 % of control | dose: 100.0 mg/kg/injection, schedule: Q04DX003 (ip), vehicle: Klucel (hydroxypropylcellulose) (HPC) 102 % of control | [7] 91 % of control | dose: 200.0 mg/kg/injection, schedule: Q04DX003 (ip), vehicle: Klucel (hydroxypropylcellulose) (HPC) 107 % of control | dose: 400.0 mg/kg/injection, schedule: Q01DX009 (ip), vehicle: Klucel (hydroxypropylcellulose) (HPC) 91 % of control | dose: 400.0 mg/kg/injection, schedule: Q04DX003 (ip), vehicle: Klucel (hydroxypropylcellulose) (HPC) 105 % of control

O=C(O)c1cc([N+](=O)[O-])c(C(=O)O)c([N+](=O)[O-])c1
inactive: dose: 75.0 mg/kg/injection, schedule: Q01DX001 (ip), vehicle: other 94 % of control | dose: 150.0 mg/kg/injection, schedule: Q01DX001 (ip), vehicle: other 95 % of control | dose: 300.0 mg/kg/injection, schedule: Q01DX001 (ip), vehicle: other 96 % of control

Reference: PubChem BioAssay AID248 (DTP/NCI, 2004)
